Experimental data from BindingDB's records for doi:10.1021/bi2002967 (University of Colorado Denver, 2011).
pIC50: −log10 of the molar value.

These compounds were tested against K562 (Homo sapiens) (assay: Cell assay using human leukemia cell line K562.).

| SMILES | pIC50 |
| --- | --- |
| Cc1c(COc2c(F)cc(F)cc2F)c2c(O)c(N=CCCN(C)C)cc(O)c2n1C [Indolequinone, compd 5] | < 5.00 |
| Cc1c(COc2c(F)cc(F)cc2F)c2c(O)cc(N=CCCN(C)C)c(O)c2n1C [Indolequinone, compd 6] | < 5.00 |
| Cc1c(COc2c(F)cc(F)cc2F)c2c(n1C)C(=O)C=C(N(C)CCCN(C)C)C2=O [Indolequinone, compd 7] | < 5.00 |
| Cc1c(COc2ccccc2)c2c(O)c(N=CCCN(C)C)cc(O)c2n1C [Indolequinone, compd 8] | < 5.00 |
| Cc1c(CO)c2c(O)c(N=CCCN(C)C)cc(O)c2n1C [Indolequinone, compd 9] | < 5.00 |

Results, then the compound that gave them:

| pIC50 | SMILES |
| --- | --- |
| < 5.00 | Cc1c(COc2ccc([N+](=O)[O-])cc2)c2c(O)c(N=CCCCN)cc(O)c2n1C [Indolequinone, compd 1] |
| < 5.00 | Cc1c(COc2c(F)cc(F)cc2F)c2c(O)c(N=CCCCN)cc(O)c2n1C [Indolequinone, compd 2] |
| < 5.00 | Cc1c(COc2c(F)cc(F)cc2F)c2c(O)cc(N=CCCCN)c(O)c2n1C [Indolequinone, compd 3] |
| < 5.00 | Cc1c(COc2c(F)cc(F)cc2F)c2c(O)c(N=CCCN)cc(O)c2n1C [Indolequinone, compd 4] |
